Source: publication PMC8321095, “Species-Specific Effects of Cation Channel TRPM4 Small-Molecule Inhibitors” (Frontiers in Pharmacology, 2021)
pEC50, pIC50: −log10 of the molar value. Blank lines part the entries; values can stand above or below the compound they belong to.

Tests used:
Format in all cases: cell-based
mouse TRPM4 = target: T1, mouse TRPM4 (Mus musculus, UniProt Q7TN37); experiment: Inside-out patch clamp on TsA-201 cells stably expressing mouse TRPM4; details: for effect of CBA- and NBA-derived compounds on mouse TRPM4 current: 10 μM, applied intracellularly, n ≥ 6
T1 construct: expressed in transfected cells
T1 sequence (Q7TN37 whole entry): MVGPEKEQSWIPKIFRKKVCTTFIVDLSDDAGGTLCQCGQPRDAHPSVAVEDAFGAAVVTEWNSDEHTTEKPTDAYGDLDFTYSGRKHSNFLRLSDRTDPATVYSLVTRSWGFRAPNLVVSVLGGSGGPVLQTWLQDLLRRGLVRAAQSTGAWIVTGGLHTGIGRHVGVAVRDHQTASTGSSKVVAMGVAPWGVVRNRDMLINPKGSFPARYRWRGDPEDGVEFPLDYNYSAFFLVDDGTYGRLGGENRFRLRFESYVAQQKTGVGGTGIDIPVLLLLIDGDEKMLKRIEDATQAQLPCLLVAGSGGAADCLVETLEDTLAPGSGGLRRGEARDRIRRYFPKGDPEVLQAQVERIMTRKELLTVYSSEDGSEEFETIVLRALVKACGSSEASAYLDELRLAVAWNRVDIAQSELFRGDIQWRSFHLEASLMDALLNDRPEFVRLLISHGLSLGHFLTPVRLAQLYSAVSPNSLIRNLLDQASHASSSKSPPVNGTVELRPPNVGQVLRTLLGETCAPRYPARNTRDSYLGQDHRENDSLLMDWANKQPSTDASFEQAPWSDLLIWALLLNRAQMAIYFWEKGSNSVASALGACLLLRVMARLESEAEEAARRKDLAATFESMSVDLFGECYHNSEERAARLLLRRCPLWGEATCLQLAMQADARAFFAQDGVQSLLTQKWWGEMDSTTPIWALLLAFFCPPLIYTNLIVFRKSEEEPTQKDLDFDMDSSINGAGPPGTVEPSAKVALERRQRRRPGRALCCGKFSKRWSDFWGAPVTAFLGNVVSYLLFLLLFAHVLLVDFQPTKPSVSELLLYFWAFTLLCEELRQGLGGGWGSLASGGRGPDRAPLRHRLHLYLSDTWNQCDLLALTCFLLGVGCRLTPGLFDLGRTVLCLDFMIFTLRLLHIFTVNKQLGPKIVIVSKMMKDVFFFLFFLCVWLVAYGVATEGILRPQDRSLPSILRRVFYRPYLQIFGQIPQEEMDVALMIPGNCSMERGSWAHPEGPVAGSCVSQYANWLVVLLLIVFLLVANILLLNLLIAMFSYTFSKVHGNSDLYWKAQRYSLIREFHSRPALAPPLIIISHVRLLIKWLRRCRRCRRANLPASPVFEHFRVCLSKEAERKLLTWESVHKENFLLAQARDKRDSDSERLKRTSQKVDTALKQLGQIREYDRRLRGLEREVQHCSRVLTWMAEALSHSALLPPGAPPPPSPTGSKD
Procedure: (§1) They were kept at 37°C with 5% CO2 in a humidified atmosphere incubator.
Electrophysiological recordings were performed in the inside-out patch-clamp configuration with patch pipettes (1 and 2 μm tip opening) pulled from 1.5 mm borosilicate glass capillaries (Zeitz-Instruments GmbH, München, Germany) using micropipette puller P 97 (Sutter Instruments, Novato, CA, United States). The tips were polished to have a pipette resistance of 2–4 MΩ in the bath solution. The pipette solution contained (in mM) 150 NaCl, 10 HEPES, and 2 CaCl2 (pH 7.4 with NaOH). The bath solution contained (in mM) 150 NaCl, 10 HEPES, 2 HEDTA (pH 7.4 with NaOH), and no Ca^2+. […] Bath solution with 0 and 300 μM Ca^2+ concentrations were applied to cells by a modified rapid solution exchanger (Perfusion Fast-Step SF-77B; Warner Instruments Corp. CT, United States). […] Data were low-pass filtered at 5 kHz and sampled at 10 kHz. Experiments were performed at room temperature (20–25°C). The holding potential was 0 mV. For measuring steady-state currents, the stimulation protocol consisted of two sweeps with a total duration of 1,000 ms, the first sweep at −100 mV for 500 ms and the second at +100 mV for 500 ms (Figure 2). […] The I-V relationships (IV curves) have been determined using an I-V protocol from −100 mV to +100 mV for 500 ms with a difference of 20 mV between each sweep (cf. Figure 6). The IV curves have been normalised to the maximum current. No fit was applied.
After obtaining inside-out membrane patches, the presence of TRPM4 in the patch membrane was confirmed by switching the perfusion solution without calcium at the intracellular side of the membrane to a solution containing 300 μM calcium, which activates TRPM4 and triggers the current. Once the TRPM4 currents were activated and stabilised for intracellular compound application, the perfusion solution containing 300 μM calcium and either the compound or free adenosine triphosphate (ATP) was applied. For extracellular application, the compounds were added to the […] (pipette) solution.
Electrophysiology data were analysed using IGOR PRO 6 (WaveMetrics, Lake Oswego, United States), Normalized current percentage inhibition was calculated as follows ([activated current at 300 μM calcium]—[activated current at 300 μM calcium with compound]) * 100/[activated current at 300 µM calcium]. Concentration-response curves were fitted using the Hill equation fit parameter of IGOR (NC = NCmax [Cmpd]nH/([Cmpd]nH + EC50 nH)) where NC is normalized current [Cmpd] is compound concentration and nH is the Hill coefficient. Data are presented as mean ± SEM except for Figures 3 and 7, where the data have been normalised to 100 for the current recorded in the presence of 300 µM calcium only. Statistically significant differences conditions were determined using a non-parametric test with a Mann-Whitney post-test.

human TRPM4 = target: T2, human TRPM4 (Homo sapiens, UniProt Q8TD43); experiment: Inside-out patch clamp on TsA-201 cells stably expressing human TRPM4; details: 300 μM calcium, +100 mV
T2 construct: expressed in transfected cells
T2 sequence (Q8TD43 whole entry): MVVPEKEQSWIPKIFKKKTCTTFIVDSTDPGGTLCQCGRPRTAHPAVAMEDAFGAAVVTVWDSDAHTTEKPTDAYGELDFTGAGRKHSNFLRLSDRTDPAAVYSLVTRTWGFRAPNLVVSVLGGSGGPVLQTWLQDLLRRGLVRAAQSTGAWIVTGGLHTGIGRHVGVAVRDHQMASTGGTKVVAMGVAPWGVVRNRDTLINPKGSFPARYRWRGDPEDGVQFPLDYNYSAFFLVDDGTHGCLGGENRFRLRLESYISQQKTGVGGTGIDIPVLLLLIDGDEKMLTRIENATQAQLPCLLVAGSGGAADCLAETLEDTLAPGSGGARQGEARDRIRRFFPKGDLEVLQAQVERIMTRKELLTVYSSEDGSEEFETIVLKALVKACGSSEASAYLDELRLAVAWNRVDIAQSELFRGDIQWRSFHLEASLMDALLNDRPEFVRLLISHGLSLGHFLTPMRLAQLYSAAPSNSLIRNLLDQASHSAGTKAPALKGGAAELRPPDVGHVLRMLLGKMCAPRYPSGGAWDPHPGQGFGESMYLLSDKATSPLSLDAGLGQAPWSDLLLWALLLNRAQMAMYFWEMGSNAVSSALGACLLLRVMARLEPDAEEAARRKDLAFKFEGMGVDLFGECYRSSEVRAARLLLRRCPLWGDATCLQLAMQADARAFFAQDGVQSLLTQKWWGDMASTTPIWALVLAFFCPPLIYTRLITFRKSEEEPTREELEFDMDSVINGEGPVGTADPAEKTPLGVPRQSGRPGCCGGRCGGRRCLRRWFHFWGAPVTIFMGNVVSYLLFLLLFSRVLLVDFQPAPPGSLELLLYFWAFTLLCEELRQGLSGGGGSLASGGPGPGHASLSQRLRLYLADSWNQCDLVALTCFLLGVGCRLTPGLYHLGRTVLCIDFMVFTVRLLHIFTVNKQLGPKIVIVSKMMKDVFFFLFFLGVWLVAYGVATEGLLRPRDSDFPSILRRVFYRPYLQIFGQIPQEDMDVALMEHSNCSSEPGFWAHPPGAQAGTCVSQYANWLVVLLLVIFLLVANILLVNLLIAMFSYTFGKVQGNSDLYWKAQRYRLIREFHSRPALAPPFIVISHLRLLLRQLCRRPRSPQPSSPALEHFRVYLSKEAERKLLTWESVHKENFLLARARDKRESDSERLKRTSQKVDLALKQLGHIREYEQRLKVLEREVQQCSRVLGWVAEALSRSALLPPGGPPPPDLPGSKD
Procedure: as §1
Electrophysiological recordings were performed in the inside-out patch-clamp configuration with patch pipettes (1 and 2 μm tip opening) pulled from 1.5 mm borosilicate glass capillaries (Zeitz-Instruments GmbH, München, Germany) using micropipette puller P 97 (Sutter Instruments, Novato, CA, United States). The tips were polished to have a pipette resistance of 2–4 MΩ in the bath solution. The pipette solution contained (in mM) 150 NaCl, 10 HEPES, and 2 CaCl2 (pH 7.4 with NaOH). The bath solution contained (in mM) 150 NaCl, 10 HEPES, 2 HEDTA (pH 7.4 with NaOH), and no Ca^2+. […] The I-V relationships (IV curves) have been determined using an I-V protocol from −100 mV to +100 mV for 500 ms with a difference of 20 mV between each sweep (cf. Figure 6). […]
Electrophysiology data were analysed using IGOR PRO 6 (WaveMetrics, Lake Oswego, United States), Normalized current percentage inhibition was calculated as follows ([activated current at 300 μM calcium]—[activated current at 300 μM calcium with compound]) * 100/[activated current at 300 µM calcium]. […] Data are presented as mean ± SEM except for Figures 3 and 7, where the data have been normalised to 100 for the current recorded in the presence of 300 µM calcium only. […]

TsA-201 cells = experiment: Cytotoxicity test (trypan blue cell counting); details: Homo sapiens, tsA201, 24 h, read-out: EC50, concentration of the inhibitor required to induce 50% of cell death
Procedure: Untransfected TsA-201 cells were seeded in a 96-wells plate at a concentration of 10,000 cells per well with DMEM and incubated at 37°C and 5% CO2 in a humidified atmosphere incubator overnight. […] After incubation, the cells were washed and incubated in 0.01% trypsin-EDTA until the cellular layer was completely detached. Cells were centrifuged down, and the pellet resuspended in 1 ml PBS. Cells were then diluted in 1 part of 0.4% trypan blue and 1-part cell suspension. This mixture was incubated for 3 min at room temperature. Finally, the unstained (viable) and stained (nonviable) cells were counted in the haemocytometer (BRAND® counting chamber BLAUBRAND®, Wertheim, Germany).

[1] = bath solution, 300 μM calcium, +100 mV

effect of CBA- and NBA-derived compounds on mouse TRPM4 current (mouse TRPM4; [1]): could inhibit mouse TRPM4 currents
SMILES: O=C(COc1cccc2c1CCCC2)Nc1cc(Cl)ccc1C(=O)O [NBA-d2, 4-chloro-2-(2-((5,6,7,8-tetrahydronaphthalen-1-yl)oxy)acetamido) benzoic acid]

pIC50 (mouse TRPM4; inside-out patch, bath solution, 300 μM calcium, +100 mV, Hill fit, n = 6, read-out: IC50 on mouse TRPM4 current, intracellular application): 5.85
SMILES: Nc1ncnc2c1ncn2[C@@H]1O[C@H](COP(=O)(O)OP(=O)(O)OP(=O)(O)O)[C@@H](O)[C@H]1O [ATP, adenosine triphosphate]
pIC50 (human TRPM4; inside-out patch, bath solution, Hill fit, n = 6, read-out: IC50 on human TRPM4 current, intracellular application): 6.10

Further lines, the compound ahead of its results:

SMILES: O=C(COc1ccc(Cl)c2ccccc12)Nc1cc(Cl)ccc1C(=O)O [NBA-d1, 4-chloro-2-(2-((4-chloronaphthalen-1-yl)oxy)acetamido) benzoic acid]
effect of CBA- and NBA-derived compounds on mouse TRPM4 current (mouse TRPM4; [1]): could inhibit mouse TRPM4 currents

SMILES: Oc1cc2ccccc2c2ccccc12 [9-phenanthrol]
effect on human TRPM4 sodium current (human TRPM4; 30 μM, extracellular or intracellular application): inhibited human TRPM4 sodium current with a similar efficacy independently of the application side
concentration dependence of potentiation of mouse TRPM4 current (mouse TRPM4; 0.1 μM versus 100 μM, intracellular application, n = 6): more pronounced with low concentrations
effect on mouse TRPM4 current, intracellular application (mouse TRPM4; 30 μM in bath solution, 300 μM calcium, +100 mV): increased the current
effect on mouse TRPM4 current, extracellular application (mouse TRPM4; 30 μM in pipette solution, 300 μM calcium, +100 mV): decreased the mouse TRPM4 current
calcium dependence of the increase of mouse TRPM4 current (mouse TRPM4; 30 μM, intracellular application, with or without 300 μM calcium): observed only in the presence of 300 μM calcium
pEC50 (TsA-201 cells): ~4.70

SMILES: Cc1cc(Cl)ccc1OC(C)C(=O)Nc1cc(Cl)ccc1C(=O)O (centres unmarked) [CBA-d1]
effect of CBA- and NBA-derived compounds on mouse TRPM4 current (mouse TRPM4; [1]): did not decrease the mouse TRPM4 currents
